Measurements taken from publication PMC10398685 (ACS Omega, 2023).

Legend:
[1] = tested on: 6 human methyltransferases (PRMT6, SUV39H1, SUV39H2, SETDB1, SETD7, and MLL1); assay type: biochemical; settings: tested at 1 μM by SPA assay, duplicate
[2] = Steady-state intracellular uptake in Calu-3 cells; assay type: in vitro ADME; settings: human, Calu-3 cells; Calu-3, 60 min incubation, 50 μM at t = 0; read-out: Kp (intracellular accumulation ratio IC/EC) (converted)
Source text: (§1) While an enzymatic MTase assay represents a valuable fast screening platform providing the information that can be directly used for SAR analyses, it is not fully predictive for the compounds’ activity in whole cells. In order to verify the ability of the compounds to reach the intracellular compartment, we measured the steady-state accumulation of representative compounds in intact CCRF-CEM, VERO-E6, and Calu-3 cells (Tables 3 and S2). […] Compound 12q was almost completely cleared from the medium after 60 min incubation with the cells rendering it among the most permeable compounds of the series based on Kp values. It should be noted that the apparent intracellular concentration of the compounds may be biased by their potential metabolism. Therefore, we decided to subject the selected derivatives to in vitro stability studies. […]
(§2) methyltransferase activity as counts per minute (CPM). The CPM measurements in the absence of compound (5% DMSO) for each enzyme was defined as 100% activity.
(§3) 3.3. Intracellular Uptake
(§4) Steady-state cellular uptake was measured in CCRF-CEM cells (ATCC, CRL-119), VERO-E6 cells (ATCC, CRL-1586) and Calu-3 cells (HTB-55), respectively. Suspension cells (CCRF-CEM) were treated as follows: Prior to the experiment, cells were washed by centrifugation (250 x g, 5 min) in prewarmed (37 °C) serum-free RPMI medium and resuspended in the same vehicle to a concentration of 2 x 10^7 cells per mL. The cell suspension was distributed into the microtubes in 500 μL aliquots (10^7 cells), and the uptake process was initiated by the addition of 2.5 μL of the 10 mM DMSO solutions of the compounds (50 μM final conc.). Samples were incubated for 60 min at 37 °C in a CO 2 incubator using a rotary stirrer. The uptake was terminated by centrifugation at 900 x g for 5 min, at +4 °C. The medium was stored at −20 °C for later analysis of the extracellular concentration of the compounds. The cells were washed two times with 1 mL PBS (900 x g, 5 min, +4 °C), and also stored at −20 °C for subsequent analysis of the intracellular concentration of the compounds. At the day of the analysis, both media and the pelleted cells were quickly thawed. The cell pellets were extracted with 200 μL of ice-cold methanol by vigorous shaking, further diluted 1:1 with water and centrifuged at 20 000 x g for 10 min. As for the media samples, 10 μL aliquots were extracted with 990 μL of 50% methanol. The samples were then transferred to ECHO® -compatible 384-well plates and the amount of analytes were quantified by the ECHO -MS® System (Sciex) where acoustic droplet ejection module is coupled with Sciex 6500® triple quadrupole mass spectrometer operating with an electrospray ionization source. Spectrometer was run in the multiple reaction monitoring (MRM) mode. When necessary, the processed samples were further diluted in 50% methanol to fit in the calibration range. Calibration curves of the compounds in 50% methanol were measured alongside the samples within the same run. The ra tio between the total compound concentration in the cells and compound concentration in the medium (K p) at t=60 min was calculated according to: Kp = (Acell / Vcell) / Cmedium, where Acell is the amount of compound in the cell lysate, Vcell is the CCRF-CEM cell volume (3.38 μL/10^7 cells)16 and Cmedium is the compound concentration in the medium sample after correcting for sample dilution. Experiments were performed in duplicates.
(§5) For adherent cells (Vero E6 and Calu-3), the workflow was modified as follows: Cells were seeded on 6-well plates at a concentration of […] and 8.2 x 10^5 cells/well for Vero E6 and Calu-3, respectively, in 3 mL of serum-free culture media. The cells were left to attach overnight, the medium was then aspirated and replenished with 2 mL of fresh media containing the compounds (50 µM final conc). After 60 min at 37 °C the media was aspirated and the cells were washed twice with 1 mL of PBS. Then, 1 mL of fresh PBS was added and the cells were […]

Calu-3 cells = assay: Steady-state intracellular uptake in Calu-3 cells; assay type: in vitro ADME; settings: Calu-3, 60 min incubation, 50 μM at t = 0
Source text: as §1, §2, §3, §4, §5

[3] = Caco-2 permeability assay; assay type: in vitro ADME; settings: human; for recovery at 3 h, 5 µM / Papp A→B at 3 h, 5 µM / Papp B→A at 3 h, 5 µM: Caco-2, 5 µM; for Papp A→B at 3 h, 5 µM / Papp B→A at 3 h, 5 µM: pH 7.4/7.4, 3 h; for efflux ratio at 3 h, 5 µM: Caco-2, (Papp B-A)/(Papp A-B)
Description: (§6) 3.6. Caco-2 permeability assay
(§7) Transepithelial bi-directional transport of tested compounds (5 µM, pH 7.4/7.4) across the Caco-2 monolayers was studied using the BD BioCoat HTS Caco -2 assay system (BD Biosciences, Bedford, MA) as described in detail elsewhere.17 Aliquots were collected from the donor and acceptor compartment at the end of transport period (3 h), integrity of monolayers were verified using Lucifer Yellow dye and the compounds were quantified using LC-MS/MS (Sciex 6500® triple quadrupole). The apparent permeability coefficient (Papp) was calculated from the following equation: Papp = (dQ / dt) / C0 * A, where dQ/dt is the rate of absorption of the drug across the cells, C0 is the donor compartment concentration at time zero, and A is the area of the monolayer. Efflux ratio was expressed as (Papp B-A) / (Papp A-B). Recovery (%) was determined as (total compound mass in donor and receiver compartments at the end of the incubation / initial compound mass in the donor compartment) x 100.

Caco-2 monolayers = assay: Caco-2 permeability assay; assay type: in vitro ADME; settings: Caco-2, 5 µM, pH 7.4/7.4, 3 h
Description: as §6, §7

## COc1ccc(S(=O)(=O)N(C)C[C@H]2O[C@@H](n3cc(C#Cc4cccnc4)c4c(N)ncnc43)[C@H](O)[C@@H]2O)cc1C#N [Compound 12s]
[1]
  Selectivity against 6 human methyltransferases: selective
[2]
  Kp at 1 h, 50 µM: 106
Calu-3 cells
  EC (extracellular concentration in the media at t = 60 min) ± sd: 14.7 ± 0.8 µM
[3]
  recovery at 3 h, 5 µM: 3%
  Papp A→B at 3 h, 5 µM: 0.4 ± 0.3 ×10⁻⁶ cm/s
  Papp B→A at 3 h, 5 µM: 0.3 ± 0.1 ×10⁻⁶ cm/s
  efflux ratio at 3 h, 5 µM: 1.3

## COc1ccc(S(=O)(=O)N(C)C[C@H]2O[C@@H](n3cc(C#Cc4ccc(C(N)=O)cc4)c4c(N)ncnc43)[C@H](O)[C@@H]2O)cc1C#N [Compound 12r]
[1]
  Selectivity against 6 human methyltransferases: selective
[2]
  Kp at 1 h, 50 µM: 1250
Calu-3 cells
  EC (extracellular concentration in the media at t = 60 min) ± sd: 4.0 ± 0.2 µM
[3]
  recovery at 3 h, 5 µM: 1%
  Papp A→B at 3 h, 5 µM: 0.1 ± 0.1 ×10⁻⁶ cm/s
  Papp B→A at 3 h, 5 µM: 0.1 ×10⁻⁶ cm/s
  efflux ratio at 3 h, 5 µM: 0.1

## COc1ccc(S(=O)(=O)N(C)C[C@H]2O[C@@H](n3cc(C#Cc4cnc5ccccc5c4)c4c(N)ncnc43)[C@H](O)[C@@H]2O)cc1C#N [Compound 12q]
[1]
  Selectivity against 6 human methyltransferases: selective
Calu-3 cells
  EC (extracellular concentration in the media at t = 60 min) ± sd: 5.6 ± 5.7 µM
  IC (intracellular concentration in the cells at t = 60 min) ± sd: 89,640 ± 6514 μM
[3]
  recovery at 3 h, 5 µM: 4%
  Papp A→B at 3 h, 5 µM: 0.2 ×10⁻⁶ cm/s
  efflux ratio at 3 h, 5 µM: 0.4
Caco-2 monolayers
  Papp B-A: 0.0 ± 0.0 x10-6 (cm/s)

## CCN(C[C@H]1O[C@@H](n2cc(C#Cc3cccnc3)c3c(N)ncnc32)[C@H](O)[C@@H]1O)S(=O)(=O)c1ccc(OC)c(C#N)c1 [Compound 12l]
[3]
  recovery at 3 h, 5 µM: 17%
  Papp A→B at 3 h, 5 µM: 0.1 ×10⁻⁶ cm/s
  Papp B→A at 3 h, 5 µM: 0.1 ×10⁻⁶ cm/s
  efflux ratio at 3 h, 5 µM: 0.9

## CCN(C[C@H]1O[C@@H](n2cc(C#Cc3cnc4ccccc4c3)c3c(N)ncnc32)[C@H](O)[C@@H]1O)S(=O)(=O)c1ccc(OC)c(C#N)c1 [Compound 12e]
[2]
  Kp at 1 h, 50 µM: 1770
Calu-3 cells
  EC (extracellular concentration in the media at t = 60 min) ± sd: 5 ± 4 µM
